Here are results for eight molecules from patent US20110275703A1, “SUBSTITUTED SPIROKETAL DERIVATIVES AND USE THEREOF AS THERAPEUTIC DRUG FOR DIABETES” (CHUGAI SEIYAKU KABUSHIKI KAISHA, priority 2007, published 2011).

Like-named read-outs stand apart in the source and are kept apart here.

This experiment addresses T1, human SGLT2 (Homo sapiens, UniProt P31639).
T1 construct: expressed in transfected cells; host or cells: CHO-K1
T1 sequence (P31639 1-672): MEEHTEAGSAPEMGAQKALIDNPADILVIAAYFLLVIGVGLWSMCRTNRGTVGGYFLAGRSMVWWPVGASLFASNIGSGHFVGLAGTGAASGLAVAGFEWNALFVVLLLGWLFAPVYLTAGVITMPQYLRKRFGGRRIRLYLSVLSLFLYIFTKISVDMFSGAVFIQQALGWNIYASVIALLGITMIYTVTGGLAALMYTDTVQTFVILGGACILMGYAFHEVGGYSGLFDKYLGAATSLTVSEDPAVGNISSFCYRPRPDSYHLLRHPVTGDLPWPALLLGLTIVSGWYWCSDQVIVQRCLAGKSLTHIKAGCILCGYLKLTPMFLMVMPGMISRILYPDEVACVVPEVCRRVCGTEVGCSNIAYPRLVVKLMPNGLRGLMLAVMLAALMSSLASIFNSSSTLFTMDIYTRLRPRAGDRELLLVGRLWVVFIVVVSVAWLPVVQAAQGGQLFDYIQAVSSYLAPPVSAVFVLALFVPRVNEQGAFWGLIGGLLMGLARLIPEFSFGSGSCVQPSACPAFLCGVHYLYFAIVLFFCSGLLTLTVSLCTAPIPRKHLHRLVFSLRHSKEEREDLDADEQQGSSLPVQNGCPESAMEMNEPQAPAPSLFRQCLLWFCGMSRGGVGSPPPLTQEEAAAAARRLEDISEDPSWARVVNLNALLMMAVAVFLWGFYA
The experiment in a line: Inhibitory activity against methyl-α-D-glucopyranoside uptake, CHO cells stably expressing human SGLT2. Format: cell-based. To be noted: for hSGLT2 selectivity: matches hSGLT1 IC50 / hSGLT2 IC50 (formula not stated). The essentials: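 CHO-K1 cells stably expressing human SGLT2 were pre-incubated in sodium-free choline buffer (pH 7.4), then exposed 45 min at 37°C to test compound in sodium buffer containing 1 mM [14C]methyl-α-D-glucopyranoside. Sodium-free buffer gave baseline uptake. After washing, cells were lysed with NaOH/SDS.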

[1] abbreviates: Table 2-2, read-out: hhSGLT2 IC50 value.
Setting [2] is: inhibition of SGLT2, Table 2-1, read-out: IC50 value.

As for `CCOc1ccc(Cc2cc3c(cc2Cl)CO[C@]32O[C@H](CO)[C@@H](O)[C@H](O)[C@H]2O)cc1` [Example 5, (1S,3′R,4′S,5′S,6′R)-5-chloro-6-[(4-ethoxyphenyl)methyl]-3′,4′,5′,6′-tetrahydro-6′-(hydroxymethyl)-spiro[isobenzofuran-1(3H),2′-[2H]pyran]-3′,4′,5′-triol], the hSGLT2 selectivity is given as 283. Under setting [1], the IC50 is 1.5 nM. Further, the IC50 under setting [2] is 1.5 nM.

Molecule `CCc1ccc(Cc2cc3c(cc2C)CO[C@]32O[C@H](CO)[C@@H](O)[C@H](O)[C@H]2O)cc1` [Comparative Compound 1, 1,1-anhydro-1-C-[5-(4-ethylphenyl)methyl-2-(hydroxymethyl)-4-methylphenyl]-β-glucopyranose, reference compound] displayed a hSGLT2 selectivity of 83. Also, the IC50 under setting [1] stood at 1.6 nM.

With `CC(C)c1ccc(Cc2cc3c(cc2Cl)CO[C@]32O[C@H](CO)[C@@H](O)[C@H](O)[C@H]2O)cc1` [Example 15, (1S,3′R,4′S,5′S,6′R)-5-chloro-3′,4′,5′,6′-tetrahydro-6′-(hydroxymethyl)-6-[(4-isopropylphenyl)methyl]-spiro[isobenzofuran-1(3H),2′-[2H]pyran]-3′,4′,5′-triol], the hSGLT2 selectivity was determined as 596. The IC50 under setting [1] amounted to 1.7 nM. The IC50 under setting [2] was 1.7 nM.

`CCc1ccc(Cc2cc3c(cc2Cl)CO[C@]32O[C@H](CO)[C@@H](O)[C@H](O)[C@H]2O)cc1` [Example 1, (1S,3′R,4′S,5′S,6′R)-5-chloro-6-[(4-ethylphenyl)methyl]-3′,4′,5′,6′-tetrahydro-6′-(hydroxymethyl)-spiro[isobenzofuran-1(3H),2′-[2H]pyran]-3′,4′,5′-triol]: the hSGLT2 selectivity is recorded as 155. For the same molecule, the IC50 under setting [1] is 1.3 nM. In addition, under setting [2], the IC50 stood at 1.3 nM.

Take `Cc1cc2c(cc1Cc1ccc(C(C)C)cc1)[C@]1(OC2)O[C@H](CO)[C@@H](O)[C@H](O)[C@H]1O` [Example 21, (1S,3′R,4′S,5′S,6′R)-3′,4′,5′,6′-tetrahydro-6′-(hydroxymethyl)-6-[(4-isopropylphenyl)methyl]-5-methyl-spiro[isobenzofuran-1(3H),2′-[2H]pyran]-3′,4′,5′-triol]: the hSGLT2 selectivity was determined as 341. The IC50 under setting [1] was 2 nM. Under setting [2], the IC50 worked out at 2.1 nM.

On to `CCCc1ccc(Cc2cc3c(cc2Cl)CO[C@]32O[C@H](CO)[C@@H](O)[C@H](O)[C@H]2O)cc1` [Example 9, (1S,3′R,4′S,5′S,6′R)-5-chloro-3′,4′,5′,6′-tetrahydro-6′-(hydroxymethyl)-6-[(4-propylphenyl)methyl]-spiro[isobenzofuran-1(3H),2′-[2H]pyran]-3′,4′,5′-triol], for which the hSGLT2 selectivity is on record as 590. For the same molecule, the IC50 under setting [1] is 2.3 nM. Moreover, under setting [2], the IC50 was determined as 2.3 nM.

`OC[C@H]1O[C@]2(OCc3cc(Cl)c(Cc4ccc(CCF)cc4)cc32)[C@H](O)[C@@H](O)[C@@H]1O` [Example 8, (1S,3′R,4′S,5′S,6′R)-5-chloro-6-[(4-(2-fluoroethyl)phenyl)methyl]-3′,4′,5′,6′-tetrahydro-6′-(hydroxymethyl)-spiro[isobenzofuran-1(3H),2′-[2H]pyran]-3′,4′,5′-triol] came in with a hSGLT2 selectivity of 323. In addition, the IC50 under setting [1] was determined as 1.1 nM. The IC50 under setting [2] stood at 1.1 nM.

`OC[C@H]1O[C@]2(OCc3cc(Cl)c(Cc4ccc5ccccc5c4)cc32)[C@H](O)[C@@H](O)[C@@H]1O` [Example 7, (1S,3′R,4′S,5′S,6′R)-5-chloro-3′,4′,5′,6′-tetrahydro-6′-(hydroxymethyl)-6-(2-naphthylmethyl)-spiro[isobenzofuran-1(3H),2′-[2H]pyran]-3′,4′,5′-triol]: the hSGLT2 selectivity is 224. Moreover, under setting [1], the IC50 was 1.7 nM. For the same molecule, under setting [2], the IC50 came to 1.7 nM.

Usually IC50 stands for the concentration that gives 50% inhibition.
